This note sets out measurements from PMC9583322, “Vicinal Diaryl-Substituted Isoxazole and Pyrazole Derivatives with In Vitro Growth Inhibitory and In Vivo Antitumor Activity” (ACS Omega, 2022).

Holding throughout (assay type): cell-based
The test system of one assay is NCI-H322M. Briefly: NCI-60 single-dose screen. The note with it: Homo sapiens, Non-Small Cell Lung Cancer, read-out: % Growth Inhibition (GI%). As for the experimental part: (§1) Moreover, in vitro single-dose anticancer screening of 11 and 85 at 10 μM was performed utilizing the stable panel of 60 cell lines comprising 9 different cancer types at the National Cancer Institute (NCI) under the Developmental Therapeutics Program (Table S1).[31]

The test system of a further assay is HOP-92. Put plainly: NCI-60 single-dose screen. As to conditions: Homo sapiens, HOP-92, Non-Small Cell Lung Cancer, read-out: % Growth Inhibition (GI%). As for the experimental part:
as §1

A further assay concerns HOP-62. Briefly: NCI-60 single-dose screen. As to conditions: Homo sapiens, HOP-62, Non-Small Cell Lung Cancer, read-out: % Growth Inhibition (GI%). As for the experimental part: as §1
A further assay relates to HL-60 (TB). Briefly: NCI-60 single-dose screen. As to conditions: Homo sapiens, Leukemia, read-out: % Growth Inhibition (GI%). The protocol: as §1
Another assay relates to ACHN. Briefly: NCI-60 single-dose screen. As to conditions: Homo sapiens, Renal Cancer, read-out: % Growth Inhibition (GI%). The protocol: as §1
The next assay has as its system SN12C. Put plainly: NCI-60 single-dose screen. As to conditions: Homo sapiens, Renal Cancer, read-out: % Growth Inhibition (GI%). As for the experimental part:
as §1

For the next assay, the system named is HS 578T. Put plainly: NCI-60 single-dose screen. The note with it: Homo sapiens, Breast Cancer, read-out: % Growth Inhibition (GI%). The protocol:
as §1

Another assay relates to 786-0. Put plainly: NCI-60 single-dose screen. As to conditions: Homo sapiens, 786-0, Renal Cancer, read-out: % Growth Inhibition (GI%). As for the experimental part: as §1
In the next assay the test system is NCI/ADR-RES. Briefly: NCI-60 single-dose screen. The note with it: Homo sapiens, Ovarian Cancer, read-out: % Growth Inhibition (GI%). As for the experimental part:
as §1

The subject of a further assay is BT-549. Put plainly: NCI-60 single-dose screen. As to conditions: Homo sapiens, BT-549, Breast Cancer, read-out: % Growth Inhibition (GI%). As for the experimental part: as §1
The subject of the next assay is SF-539. Briefly: NCI-60 single-dose screen. The note with it: Homo sapiens, SF-539, CNS Cancer, read-out: % Growth Inhibition (GI%). The protocol: as §1
The next assay concerns NCI-H23. Briefly: NCI-60 single-dose screen. The note with it: Homo sapiens, NCI-H23, Non-Small Cell Lung Cancer, read-out: % Growth Inhibition (GI%). As for the experimental part:
as §1

The test system of a further assay is K-562. Briefly: NCI-60 single-dose screen. The note with it: Homo sapiens, K562, K-562, Leukemia, read-out: % Growth Inhibition (GI%). The protocol:
as §1

The subject of a further assay is HT29. Put plainly: NCI-60 single-dose screen. As to conditions: Homo sapiens, HT-29, HT29, Colon Cancer, read-out: % Growth Inhibition (GI%). The protocol:
as §1

The test system of another assay is SW-620. Briefly: NCI-60 single-dose screen. As to conditions: Homo sapiens, SW-620, Colon Cancer, read-out: % Growth Inhibition (GI%). The protocol: as §1
Another assay relates to OVCAR-8. Briefly: NCI-60 single-dose screen. As to conditions: Homo sapiens, OVCAR-8, Ovarian Cancer, read-out: % Growth Inhibition (GI%). As for the experimental part:
as §1

The next assay concerns SNB-19. Put plainly: NCI-60 single-dose screen. The note with it: Homo sapiens, SNB-19, CNS Cancer, read-out: % Growth Inhibition (GI%). The protocol: as §1
A further assay deals with OVCAR-5. Put plainly: NCI-60 single-dose screen. As to conditions: Homo sapiens, OVCAR-5, Ovarian Cancer, read-out: % Growth Inhibition (GI%). As for the experimental part: as §1
A further assay concerns OVCAR-3. Briefly: NCI-60 single-dose screen. As to conditions: Homo sapiens, OVCAR-3, Ovarian Cancer, read-out: % Growth Inhibition (GI%). The protocol: as §1
The test system of another assay is MCF10A. Put plainly: SRB cytotoxicity assay, immortalized normal breast epithelial cells. The note with it: Homo sapiens, MCF-10A, 72 h treatment, non-tumorigenic immortalized breast epithelial cells. As for the experimental part: HepG2, FOCUS, Hep3B, Mahlavu, Huh7, Hep40, and PLC-PRF-5 hepatocellular carcinoma cells; MCF-7, MDA-MB-231, MDA-MB-468, SKBR3, and ZR-75 breast cancer cells; and normal-like epithelial MCF-10A breast cells were cultured in low-glucose Dulbecco’s modified Eagle’s medium (DMEM) (Biological Industries-BI) supplemented with 10% fetal bovine serum (FBS) (Gibco/Thermo Fisher Scientific), 2 mM L-Glutamine (Gibco/Thermo Fisher Scientific), 100 Units/mL Penicillin/Streptomycin, and 0.1 mM non-essential amino acid (Gibco/Thermo Fisher Scientific). […]
Mahlavu, FOCUS, SNU475 (1000 cell/well in 150 μL/well); Huh7, MCF7 (2500 cell/well in 150 μL/well); HepG2, Hep3B, SKBR3 (3000 cell/well in 150 μL/well); PLC-PRF-5, Hep40 (5000 cell/well in 150 μL/well); MDA-MB-231, MDA-MB-468, MCF10A (6000 cell/well in 150 μL/well); and ZR-75 (7500 cell/well in 150 μL/well) were cultured in 96-well plates and were inoculated in an incubator for 24 hours. […] The protein-bound SRB was solubilized with 10 mM Tris-base (Sigma) and their absorbance was measured with a 96-well plate reader at 515 nm wavelength (ELx800, Biotek). The IC50 values of compounds were calculated in comparison with control group DMSO. […]

Take `Cc1ccccc1COc1ccc(-c2noc(C)c2-c2ccc(Cl)cc2)cc1` [compound 11, 4-(4-Chlorophenyl)-5-methyl-3-(4-((2-methylbenzyl)oxy)phenyl)isoxazole]: the inhibition at 10 µM amounted to 2.44% in the assay on NCI-H322M; 27.4% in the assay with HOP-92; 48.4% in the assay with HOP-62; 82.3% in the assay with HL-60 (TB); 33% with ACHN; 31.7% in the assay with SN12C. Moreover, the inhibition at 10 µM in the assay on HS 578T was 40.6%; in the assay on 786-0, 24.5%; in the assay with NCI/ADR-RES, 60.8%; in the assay with BT-549, 33.8%; in the assay with SF-539, 36.5%; in the assay with NCI-H23, 26.2%. Also, the inhibition at 10 µM is 85.6% with K-562; 83.1% with HT29; 68.3% with SW-620; 24.2% with OVCAR-8; 44.5% with SNB-19; 12.4% in the assay with OVCAR-5. Also, the inhibition at 10 µM in the assay with OVCAR-3 was found to be 79.3%. Also, half-maximal inhibition with MCF10A (IC50) required 12.1 µM.
For the molecule `Cc1ccccc1COc1ccc(-c2ccnn2-c2ccc(Cl)cc2)cc1` [compound 85, 1-(4-Chlorophenyl)-5-(4-((2-methylbenzyl)oxy)phenyl)-1H-pyrazole], the inhibition at 10 µM with NCI-H322M was 3.12%; in the assay on HOP-92, 25.8%; in the assay with HOP-62, 50.7%; in the assay with HL-60 (TB) it was 86.7%; in the assay on ACHN, 22.4%; with SN12C, 32.4%. Moreover, the inhibition at 10 µM in the assay with HS 578T was determined as 39.1%; with 786-0 it was 17.2%; in the assay on NCI/ADR-RES it was 62%; in the assay with BT-549, 25%; in the assay on SF-539 it was 28.2%; in the assay with NCI-H23, 23.4%. Further, the inhibition at 10 µM was 86.3% in the assay on K-562; 82.4% with HT29; 70.3% with SW-620; 24.8% in the assay on OVCAR-8; 38% in the assay on SNB-19; 8.29% with OVCAR-5. Also, the inhibition at 10 µM in the assay with OVCAR-3 amounted to 73.4%. In the assay on MCF10A, this molecule came in with an IC50 of 7.6 µM.
